The nature of the data set: Human HepG2 cell viability assay in 384 well format. It is filed as toxicity, cell-based. Details: dose 125 nL, time 70.5 hour; cytotoxicity at 70.5 h: concentration not given beside the values. Conditions: HepG2 cells, read-out: Inhibition.
In the case of `CCc1nc(CNc2ccc(C(=O)NCc3ccco3)cc2C)no1`, the cytotoxicity at 70.5 h was -9.99%. To `Cc1cnc(C)c(N2CCC(c3nnc(CN(C)C)n3C3CC3)CC2)n1` belongs 11.2%.

With `CC(C)NC(=O)C1(Cc2ccccc2-c2ccccc2)CCCNC1` (stereo not given), the cytotoxicity at 70.5 h was -1.97%. As for `COCCOCC(=O)N1C[C@@H]2CC[C@H](Oc3ccccc3)[C@@H]2C1`, the cytotoxicity at 70.5 h is -3.37%. To `COc1ccc(N2CCN(C(=O)C3CN(C)C(=O)N3)CC2(C)C)cc1` (stereo not given) belongs -8.78%; to `O=S1(=O)N(c2ccccc2)C[C@H](O)[C@]12CCNC2`, -2.92%; to `CCC(CO)NC(=O)NCc1cc(C#N)ccc1F` (stereo not given), -9.99%. To `Cc1nc(C)c(C(=O)N2CCc3nnc(C4CCCCN4C)n3CC2)o1` (stereo not given) belongs 0.605%; to `O=C(Cc1n[nH]c(-c2cncc(Br)c2)n1)NCc1cccnc1`, -9.48%; to `Cn1cnc2c1C(COCC1CCOCC1)CN(C(=O)c1ccco1)C2` (stereo not given), -8.23%. Turning to `Cc1csc(N2CCCN(C(=O)c3nccnc3N)CC2)n1`, the cytotoxicity at 70.5 h is -0.698%. For `Cc1cc2n(n1)CCN(c1nc(N)nc3c1CCNCC3)C2` the value was -13.6%; for `O=C(CCS(=O)(=O)C1CCCC1)NCc1ccccc1Cn1cncn1`, -11%.

With `COc1cccc2c1ccn2CCNC(=O)C(C)C`, the cytotoxicity at 70.5 h is -6.5%. For `CCN(Cc1ccc(O)c(C(=O)O)c1)CC1CCCO1` (stereo not given) the value was 24.1%; for `CC(Cn1ccnc1)NC(=O)N(C)Cc1ccco1` (stereo not given), -2.84%; for `COC[C@@H]1CCC[C@@]12CN(C(=O)N(C)C)CCO2`, 0.626%.

On to `CC(=O)c1c(F)cccc1NC1CCN(C(=O)CC(C)C)CC1`, for which the cytotoxicity at 70.5 h worked out at 12.4%.

Turning to `CCCn1cc(NC(=O)Nc2ccc(F)c(C(=O)NC)c2)cn1`, the cytotoxicity at 70.5 h was -4.76%. For `C=C(C)CNC(=O)C1CCC(=O)N(C2CCCC2)C1` (stereo not given) the value was -2.49%; for `CN(C(=O)CN(Cc1cccc(O)c1)C1CCC(O)CC1)C1CC1` (stereo not given), -6.65%. On to `Cc1cccc(C(C(=O)N2CC(Oc3ccccc3F)C2)N(C)C)c1` (stereo not given), for which the cytotoxicity at 70.5 h is -1.02%.

`Cc1c(C)n(Cc2ccncc2)c2nc3c(c(N)c12)CCCCCC3`: the cytotoxicity at 70.5 h worked out at 30.2%.

Take `CCOc1cc(C)nc(N2CCN(C(=O)c3cscn3)CC2)n1`: the cytotoxicity at 70.5 h was -4.61%. To `Cc1ccc2c(c1)C(NC(=O)N(C)C)CC21CCN(C)CC1` (stereo not given) belongs -3.53%; to `CN(Cc1ccncc1)C(=O)Nc1cnn(CC2CCCO2)c1` (stereo not given), -3.42%; to `Cc1nc(-c2cccs2)ccc1C(=O)N1CCN(CCO)CC1`, 0.744%.

`O=C(c1cc(Cl)c2c(c1)OCCCO2)N(CC1CCOC1)C1CC1` (stereo not given): the cytotoxicity at 70.5 h is -7.67%. With `Clc1cccc2c3c([nH]c12)CCN(Cc1cc2n(n1)CCNC2)C3`, the cytotoxicity at 70.5 h worked out at 22.8%. Consider `Cc1nc(CN2Cc3cn(C)nc3C(COCC3CC3)C2)cs1` (stereo not given), for which the cytotoxicity at 70.5 h is 14.1%. To `CCOC(=O)C1(Cc2ccccc2-c2ccccc2OC)CCNCC1` belongs 11%; to `CSCCc1ccc(NC(=O)NC(C)Cn2cncn2)cc1` (stereo not given), -2.38%. To `O=C(O)[C@@H]1CN(C(=O)c2ccc(O)cc2)C[C@H]1c1cccc(F)c1` belongs 14.4%. On to `COC(=O)CCC(=O)N1CCC2(CN(Cc3ccc(Cl)cc3)C2)C1`, for which the cytotoxicity at 70.5 h is -6.67%.

For the compound `CC(=O)c1cccc(NS(=O)(=O)c2cc(C)c(C(=O)O)s2)c1`, the cytotoxicity at 70.5 h was -4.79%.

Regarding `CCCNC(=O)c1cc(C(C)C)nc(N2CCCC2)n1`, the cytotoxicity at 70.5 h was -8.39%. Consider `CC1CCCN(c2ncc(C(=O)NCc3ccc(F)c(Cl)c3)c(N)n2)C1` (stereo not given), for which the cytotoxicity at 70.5 h was 19.8%. To `O=C(CCn1cncn1)NCC1CCS(=O)(=O)C1` (stereo not given) belongs -12.4%; to `CCCNC(=O)c1cc2c(s1)CCN2C(=O)CN(C)C`, -14.4%; to `CCc1ccc(-c2cn3c(C(=O)NCC(C)C(=O)NC)csc3n2)cc1` (stereo not given), -1.36%. For `Cc1cccc(CN2CCCCC23CCNC3)n1` (stereo not given) the value was -8.16%; for `Cc1ccc(-c2cc(-c3c(C)nn(CCO)c3C)c(C#N)c(N)n2)cc1`, 0.809%. For `CN(C)c1cncc(C2CCN(C(=O)CO)CC2)n1`, the cytotoxicity at 70.5 h is -22.6%. For `CCN1CCN(c2ccc(CNC(=O)Cc3c(C)noc3C)cn2)CC1` the value was -10.4%. For `CCn1nc(C)c2c1cnn2CCNS(=O)(=O)c1cccs1` the value was 4.54%; for `CC(=O)Nc1ccc(CNCc2cccnc2N(C)C)cc1`, 1.4%. For `N#Cc1cnn(-c2ccc(C(=O)Nc3ccccn3)cc2)c1N` the value was 25.3%. `O=C(c1cc2cccc(F)c2[nH]1)N1C[C@@H](O)[C@H](N2CCCC2)C1`: the cytotoxicity at 70.5 h was -4.92%. To `Cc1ccc(-c2cnc(CCC(=O)NCCN3CCOCC3)o2)cc1C` belongs 2.52%; to `Cc1cc(CN2CC[C@@H]3[C@@H](CCC(=O)N3CCc3c[nH]cn3)C2)oc1C`, 1.03%. For `CCN1CCOCC2(CCCN(C(=O)c3conc3C)C2)C1` (stereo not given) the value was -1.18%.

With `NCC(CO)Cc1ccc(C(F)(F)F)cc1` (stereo not given), the cytotoxicity at 70.5 h is 4.66%.

Regarding `CN(C)[C@@H]1CN(Cc2ccco2)C[C@@H]2CCCO[C@@H]21`, the cytotoxicity at 70.5 h is -8.79%. As for `CN(C)c1ccccc1C(=O)N1C[C@@H](CN2CCOCC2)[C@@H](CO)C1`, the cytotoxicity at 70.5 h was -3.02%. To `COC[C@@H]1CCC[C@]12CN(S(=O)(=O)c1cccs1)CCO2` belongs -4.17%; to `Cc1cccc(C(=O)NCCS(=O)(=O)Cc2ccccc2)c1`, -8.95%; to `Cn1ncc2c(=O)[nH]c(CN3CCCC3c3cccc(F)c3)nc21` (stereo not given), -7.63%. For `COC(=O)C(C)N(Cc1cc(=O)n(C)c(=O)n1C)C1CC1` (stereo not given) the value was 4.91%; for `CNC(=O)NC(=O)CCSCc1cc(Cl)cc2cccnc12`, -16.5%.

As to `CCC[C@@H]1CN(Cc2ccccc2OC(F)(F)F)C[C@H]1NC(C)=O`, the cytotoxicity at 70.5 h is -20%. For `OC[C@@H]1[C@H]2CN(c3ccccn3)CCN2C[C@H]1c1ccccc1` the value was -1.78%; for `CCN1CCN(S(=O)(=O)N2CCC(OC)CC2)[C@H]2CS(=O)(=O)C[C@H]21`, -9.02%. To `Cn1ncnc1CNc1ccc2c(c1)N(C(=O)OC(C)(C)C)CCC2` belongs -8.19%; to `COCC(=O)Nc1cnc(N2CCCC2)nc1`, -0.927%; to `CS(=O)(=O)NCC1CCCN(C(=O)COCc2ccccc2)C1` (stereo not given), -12.3%.

For `CNCC(=O)Nc1cccc(-c2cnc(NCCO)nc2)c1`, the cytotoxicity at 70.5 h was -1.04%. For `OC(CN1CCN(CC2CC2)CC1)c1ccc(Br)cc1` (stereo not given) the value was -2.6%; for `COCC(C)NC(=O)c1cn(C(C)C)cc2c(=O)[nH]nc1-2` (stereo not given), -6.59%. For `CNS(=O)(=O)c1cccc(CNC(=O)c2c(C)oc(C)c2C)c1` the value was 22.6%. To `CCCOC1CCCN(c2nc(COC)nc3c2cnn3C)C1` (stereo not given) belongs -19%.

(Values after ChEMBL document CHEMBL3507680, “University of Dundee, Gates Library screen for HepG2 cell viability”.)
